Structures are written as SMILES. Where two headings read alike, the source gives them in different places.

The IC50 is the concentration needed to halve the response being measured. A high value points to lower potency. A word on the Kd: it is the constant that tells how readily two partners part at equilibrium.

Assay [1] has as its target T1, FGFR4/KLB (Fc-fused human FGF-R4 with beta-klotho) (Homo sapiens, UniProt P22455).
T1 sequence (P22455 22-369 limits assumed): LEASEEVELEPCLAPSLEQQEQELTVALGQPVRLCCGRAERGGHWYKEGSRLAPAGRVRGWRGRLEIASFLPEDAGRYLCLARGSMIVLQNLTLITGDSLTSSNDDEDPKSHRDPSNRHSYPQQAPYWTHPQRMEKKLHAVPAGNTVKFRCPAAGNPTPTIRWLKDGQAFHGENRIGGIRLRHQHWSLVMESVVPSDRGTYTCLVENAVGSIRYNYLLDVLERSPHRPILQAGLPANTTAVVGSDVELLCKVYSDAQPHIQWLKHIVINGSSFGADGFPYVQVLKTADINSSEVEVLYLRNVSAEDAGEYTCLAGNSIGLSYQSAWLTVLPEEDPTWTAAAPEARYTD
Description: AlphaScreen FGF21 competitive binding assay.
Description: Alphascreen binding assay
(§2) The competitive binding assay was carried out according to the methods detailed in Hansen. et al using
(§3) AlphaScreen.3 All reagents and samples were prepared in assay buffer: 40mM Hepes, 140mM NaCl, 1mM
(§4) CaCl2, 0,05% Tween20, pH=7.5, 0.1% BSA. In brief, recombinant human beta-klotho (R&D Systems) was
(§5) preincubated for 60 min with the ectodomain, either Fc-fused human FGF-R1alpha(IIIc), FGF-R3alpha(IIIc)
(§6) or FGF-R4 (R&D Systems), and the mixture was added to the test peptides in OptiPlate™ (PerkinElmer).
(§7) Biotinylated FGF21 and heparin were further added to each well. AlphaScreen bead mix (1:1 mix of Protein
(§8) A acceptor beads/ streptavidin-coated donor beads, PerkinElmer) were added to each well incubated
(§9) overnight at RT in the dark, and measured on a plate reader (Envision). Assays were carried out in triplicates
(§10) with concentrations ranging from 3, 10, 30, 100, 300 ,1000 and 3000 nM of peptide. No peptide control
(§11) (media only) was used as a negative control, and unlabeled FGF21 and FGF1 as positive control.
(§12) competing with biotinylated natural FGF21 ligand.

The target of assay [2] is T2, FGF-R4 ECD (Homo sapiens, UniProt P22455).
T2 construct: DNA constructs for the extracellular domain (ECD) of human FGF-; HPC4 (C); made in house; host or cells: HEK 293-6E
T2 sequence (P22455 22-369 limits assumed): T1 sequence (P22455 22-369 limits assumed)
Description: single concentration BLI of crude peptides. It is filed as binding. To be noted: crude NNK peptides, single concentration BLI (Table S3); read-out: KD (4). In short, it runs like this: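 Biotinylated FGF-R ECD on streptavidin biosensors was dipped into ~1 μM crude peptide in PBS pH7.4 with 0.05% Tween-20 and 0.01% BSA for association, then into buffer for dissociation, and followed by BLI. Fitted KD values were adjusted for peptide concentration measured by UPLC-CAD.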

Assay [3] concerns the target T3, FGFR1c/KLB (Fc-fused human FGF-R1alpha(IIIc) with beta-klotho) (Homo sapiens, UniProt P11362).
T3 sequence (P11362 22-376 limits assumed): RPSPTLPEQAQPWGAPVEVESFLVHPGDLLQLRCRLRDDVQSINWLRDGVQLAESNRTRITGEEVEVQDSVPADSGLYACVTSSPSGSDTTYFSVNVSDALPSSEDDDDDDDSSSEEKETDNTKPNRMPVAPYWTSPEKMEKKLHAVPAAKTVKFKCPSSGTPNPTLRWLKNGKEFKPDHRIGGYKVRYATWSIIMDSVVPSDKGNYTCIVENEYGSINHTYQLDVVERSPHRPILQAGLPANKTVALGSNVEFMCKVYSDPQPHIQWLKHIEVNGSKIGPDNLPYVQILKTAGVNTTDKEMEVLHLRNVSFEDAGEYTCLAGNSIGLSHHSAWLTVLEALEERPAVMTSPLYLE
The assay is described as follows: AlphaScreen FGF21 competitive binding assay. A general note: Alpha assays give light when donor and acceptor beads are brought close together.
Description: Alphascreen binding assay
as §2, §3, §4, §5, §6, §7, §8, §9, §10, §11, §12

Assay [4] deals with T4, FGF-R1C ECD (Homo sapiens, UniProt P11362).
T4 sequence (P11362 22-376 limits assumed): T3 sequence (P11362 22-376 limits assumed)
The assay is described as follows: biochemical. In short, it runs like this: (§1)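 Biolayer interferometry with biotinylated FGF-R ECD on streptavidin biosensors in PBS pH 7.4, 0.05% Tween-20, 0.01% BSA. Multi-concentration: purified peptide dilution series fitted to a multi-point KD model.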

The target in assay [5] is T5, FGF-R3C ECD (Homo sapiens, UniProt P22607).
T5 sequence (P22607 23-375 limits assumed): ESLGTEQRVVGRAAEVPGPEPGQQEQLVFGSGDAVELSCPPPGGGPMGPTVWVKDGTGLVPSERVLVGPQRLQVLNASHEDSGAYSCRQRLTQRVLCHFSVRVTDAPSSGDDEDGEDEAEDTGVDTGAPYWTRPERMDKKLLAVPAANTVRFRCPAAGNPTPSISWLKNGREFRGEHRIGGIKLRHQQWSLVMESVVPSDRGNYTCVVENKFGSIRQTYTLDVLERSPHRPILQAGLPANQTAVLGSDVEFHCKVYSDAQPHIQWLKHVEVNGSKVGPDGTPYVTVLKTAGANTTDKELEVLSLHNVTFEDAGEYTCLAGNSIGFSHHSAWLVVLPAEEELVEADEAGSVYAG
The assay is described as follows: biochemical. In a few lines:
as §1

Assay [6] addresses T2, FGF-R4 ECD. Description: multi-concentration BLI of purified peptides. It is filed as binding. To be noted: purified NNK library peptides. In short, it runs like this:
as §1

Assay [7] has as its target T6, FGFR3c/BKL (Fc-fused human FGF-R3alpha(IIIc) with beta-klotho) (Homo sapiens, UniProt P22607).
T6 sequence (P22607 23-375 limits assumed): T5 sequence (P22607 23-375 limits assumed)
The assay is described as follows: AlphaScreen FGF21 competitive binding assay.
Description: Alphascreen binding assay
as §2, §3, §4, §5, §6, §7, §8, §9, §10, §11, §12

The target in assay [8] is T4, FGF-R1C ECD. Description: biochemical. The arrangement: DNA constructs for the extracellular domain (ECD) of human FGF-; HPC4 (C); made in house; host or cells: HEK 293-6E. It is filed as binding. In a few lines: as §1
Assay [9] has as its target T5, FGF-R3C ECD. The assay is described as follows: biochemical. The format is binding. Details: DNA constructs for the extracellular domain (ECD) of human FGF-; HPC4 (C); made in house; host or cells: HEK 293-6E. In short, it runs like this:
as §1

In the case of `CSCC[C@H](NC(C)=O)C(=O)N[C@H]1CSSC[C@@H](C(=O)NCC(=O)N[C@@H](CO)C(=O)NCC(=O)N[C@@H](CO)C(=O)N[C@@H](CC(=O)O)C(=O)N[C@@H](Cc2ccc(O)cc2)C(=O)N[C@@H](CCCCN)C(=O)N[C@@H](CC(=O)O)C(=O)N[C@@H](CC(=O)O)C(=O)N[C@@H](CC(=O)O)C(=O)N[C@@H](CC(=O)O)C(=O)N[C@@H](CCCCN)C(N)=O)NC(=O)[C@H](CC(C)C)NC(=O)[C@H](Cc2c[nH]c3ccccc23)NC(=O)[C@H](C)NC(=O)[C@H](Cc2ccccc2)NC(=O)[C@H](Cc2ccccc2)NC(=O)[C@H](Cc2c[nH]c3ccccc23)NC(=O)[C@@H]2CCCN2C(=O)[C@H](Cc2c[nH]cn2)NC(=O)[C@H](CCCCN)NC(=O)[C@H](Cc2ccccc2)NC1=O` [4.5], the IC50 was 284 nM in assay [1], > 1000 nM in assay [3] and > 1000 nM in [7]. For the same compound, the Kd on FGF-R4 ECD [2] was 35 nM; at FGF-R1C ECD [4] it was > 1000 nM; on FGF-R3C ECD [5], > 1000 nM; on FGF-R4 ECD [6], 233 nM; on FGF-R1C ECD [8] it was > 10 µM; on FGF-R3C ECD [9] it was > 10 µM.

As for `CC[C@H](C)[C@@H]1NC(=O)[C@@H](NC(=O)[C@H](CCSC)NC(C)=O)CSSC[C@@H](C(=O)NCC(=O)N[C@@H](CO)C(=O)NCC(=O)N[C@@H](CO)C(=O)N[C@@H](CC(=O)O)C(=O)N[C@@H](Cc2ccc(O)cc2)C(=O)N[C@@H](CCCCN)C(=O)N[C@@H](CC(=O)O)C(=O)N[C@@H](CC(=O)O)C(=O)N[C@@H](CC(=O)O)C(=O)N[C@@H](CC(=O)O)C(=O)N[C@@H](CCCCN)C(N)=O)NC(=O)[C@H](Cc2ccccc2)NC(=O)[C@H](CCCNC(=N)N)NC(=O)[C@H](CCCCN)NC(=O)[C@H](Cc2c[nH]cn2)NC(=O)[C@H](C)NC(=O)[C@H](CC(C)C)NC(=O)[C@H](Cc2ccccc2)NC(=O)[C@H](CCSC)NC(=O)[C@H](CCCCN)NC1=O` [4.6], the IC50 in [1], in assay [3] and in assay [7] was > 1000 nM each time. Moreover, the Kd on FGF-R4 ECD [2] was 97 nM; at FGF-R1C ECD [4] it was > 1000 nM; at FGF-R3C ECD [5], > 1000 nM; at FGF-R4 ECD [6] it was 358 nM; on FGF-R1C ECD [8] it was > 10 µM; at FGF-R3C ECD [9], > 10 µM.

With `CSCC[C@H](NC(C)=O)C(=O)N[C@H]1CSSC[C@@H](C(=O)NCC(=O)N[C@@H](CO)C(=O)NCC(=O)N[C@@H](CO)C(=O)N[C@@H](CC(=O)O)C(=O)N[C@@H](Cc2ccc(O)cc2)C(=O)N[C@@H](CCCCN)C(=O)N[C@@H](CC(=O)O)C(=O)N[C@@H](CC(=O)O)C(=O)N[C@@H](CC(=O)O)C(=O)N[C@@H](CC(=O)O)C(=O)N[C@@H](CCCCN)C(N)=O)NC(=O)[C@H](C(C)C)NC(=O)[C@H](CC(C)C)NC(=O)[C@H](CC(C)C)NC(=O)[C@H](Cc2c[nH]c3ccccc23)NC(=O)[C@H](Cc2ccc(O)cc2)NC(=O)[C@H](Cc2ccccc2)NC(=O)[C@H](CC(C)C)NC(=O)[C@H](CCCNC(=N)N)NC(=O)[C@H](CCC(=O)O)NC(=O)[C@@H]2CCCN2C1=O` [4.7], the IC50 in assay [1], in assay [3] and in assay [7] was > 1000 nM each time. Also, the equilibrium dissociation constant (Kd) at FGF-R4 ECD [2] was 68 nM; on FGF-R1C ECD [4], > 1000 nM; at FGF-R3C ECD [5] it was > 1000 nM; on FGF-R4 ECD [6], 443 nM; at FGF-R1C ECD [8] it was > 10 µM; at FGF-R3C ECD [9] it was > 10 µM.

Regarding `CC[C@H](C)[C@@H]1NC(=O)[C@H](Cc2c[nH]c3ccccc23)NC(=O)[C@@H]2CCCN2C(=O)[C@H](CCC(=O)O)NC(=O)[C@@H](NC(=O)[C@H](CCSC)NC(C)=O)CSSC[C@@H](C(=O)NCC(=O)N[C@@H](CO)C(=O)NCC(=O)N[C@@H](CO)C(=O)N[C@@H](CC(=O)O)C(=O)N[C@@H](Cc2ccc(O)cc2)C(=O)N[C@@H](CCCCN)C(=O)N[C@@H](CC(=O)O)C(=O)N[C@@H](CC(=O)O)C(=O)N[C@@H](CC(=O)O)C(=O)N[C@@H](CC(=O)O)C(=O)N[C@@H](CCCCN)C(N)=O)NC(=O)[C@H](CCCCN)NC(=O)[C@H](CCCCN)NC(=O)[C@H](CC(C)C)NC(=O)[C@H](C(C)C)NC(=O)[C@H](CCCCN)NC(=O)[C@H](Cc2ccc(O)cc2)NC(=O)[C@H]([C@@H](C)CC)NC(=O)[C@H]([C@@H](C)O)NC1=O` [4.8], the IC50 in [1] was 945 nM; in [3] it was > 1000 nM; in assay [7], > 1000 nM. The Kd is 287 nM on FGF-R4 ECD [2]; > 1000 nM at FGF-R1C ECD [4]; > 1000 nM on FGF-R3C ECD [5]; 478 nM at FGF-R4 ECD [6]; > 10 µM at FGF-R1C ECD [8]; 1.25 µM on FGF-R3C ECD [9].

The values are drawn from paper PMC10763615, “Identification and engineering of potent cyclic peptides with selective or promiscuous binding through biochemical profiling and bioinformatic data analysis” (RSC Chemical Biology, 2023).
